Source: US20250019350A1, “SYNTHESIS OF THE PROSTATE SPECIFIC MEMBRANE ANTIGEN (PSMA) RADIOLABELED INHIBITOR [18F]DCFPYL” (Progenics Pharmaceuticals, Inc, priority 2023, published 2025)

Experiment: HPLC/UV (264 nm) chemical impurity assay; ascorbic acid related impurity
Type: physicochemical
Conditions: development lot at 163.0 mCi/mL with ascorbic acid
Experimental: Analytical HPLC method was used. The method employs UV detection at 264 nm for chemical impurities, and an Eckert & Ziegler model B-FC-1000 gamma detector for radiochemical assays.
Since the peak has not been previously observed in preparations in the absence of ascorbic acid it is likely ascorbic acid related and was further investigated. A decayed sample from the lot produced was analyzed further and confirmed the presence of the peak, FIG. 35. […] The sample was assayed for chemical impurities at T=0, 4, 10 and 24 hours when held inverted at ambient conditions. […] The impurity only formed with radioactivity exposure but not when stored in light or dark at ambient conditions (see FIG. 37).

## O=C(O)CC[C@H](NC(=O)N[C@@H](CCCCNC(=O)c1ccc([18F])nc1)C(=O)O)C(=O)O [Lot 18F-DCFPyL, 2-(3-{1-carboxy-5-[(6-[18F]fluoro-pyridine-3-carbonyl)-amino]-pentyl}ureido)-pentanedioic acid]
  chemical impurity at retention time approximately 4.6 minutes on the UV trace: 0.9 µg/mL
